What was measured:
Assay type in all cases: cell-based, human
[1] = test system: fructokinase-1 (FK-1) mRNA; assay: Fructokinase-1 mRNA by Northern blot in MCF-7 cells; conditions: MCF-7, 5.5 mM fructose, 24 h
Experimental: FIG. 9 depicts Northern blot analysis of fructokinase-1 mRNA levels in MCF-7 breast cancer cells in accordance with an embodiment of the present invention. 20 μg total RNA was used to measure FK-1 mRNA levels in the MCF-7 cells following growth in 2 mM glucose, 5.5 mM glucose, or 5.5 mM fructose for 24 h. FK-1 was also detected in human liver, with lower levels in muscle tissue.
In additional studies, the inventors used Northern blot to confirm significant FK-1 mRNA expression in the breast cancer cells. As depicted in FIG. 9, fructokinase-1 mRNA expression was detected in MCF-7 cells cultured in 2, and 5.5 mM glucose, and 5.5 mM fructose, and in human muscle and liver tissue.

[2] = test system: AP-1 activation in PANC-1 cells; assay: AP-1 probe binding assay, PANC-1 nuclear extracts; conditions: PANC-1, 5.5 mM fructose, 48 h
Experimental: FIG. 24 depicts luciferase activity of PANC-1 cells and primary culture of surgically resected pancreatic tumor cells in accordance with an embodiment of the present invention. PANC-1 pancreatic cancer cells and a primary culture of a surgically resected pancreatic tumor were incubated in 2 mM glucose, 5.5 mM glucose or 5.5 mM fructose for 48 h, after which nuclear extracts were incubated with a biotinylated AP-1 probe, and detected by an antibody-linked colorimetric method. *, p<0.01
In separate experiments PANC-1 cells, and primary cultures of surgically resected pancreatic tumors were incubated in 2 mM glucose, or 5.5 mM glucose or 5.5 mM fructose for 48 h, after which nuclear extracts were incubated with a biotinylated AP-1 probe in binding buffer. AP-1/AP1 probe complexes were next conjugated to a streptavidin-coated assay plate and detected using an AP-1 specific antibody, followed by binding of a horseradish-peroxidase conjugated secondary antibody, and detection by a colorimetric reagent.

[3] = test system: primary cultures of fresh surgically resected pancreatic cancers; assay: BRDU uptake in primary cultures of resected pancreatic cancers; conditions: all 5 primary pancreatic cancers, 5.5 mM, 72 h
Experimental: FIG. 18 depicts BRDU incorporation by pancreatic cells in accordance with an embodiment of the present invention. Freshly resected pancreatic cancers were mechanically, and enzymatically dispersed, and cells were pre-incubated in 2 mM glucose prior to treatment with 5.5 mM glucose or fructose for 72 h. BRDU (10 μM) was added to the medium at 48 h, and BRDU-uptake quantified at 72 h.
As immortalized cell-lines, such as PANC-1 pancreatic cancer cells, can become dedifferentiated after repeated passages, and in order to translate these findings in the PANC-1 cells to patients with pancreatic cancer, the inventors also examined proliferative rates in primary cultures of fresh surgically resected pancreatic cancers, following incubation in 2 mM, and 5.5 mM glucose or 5.5 mM fructose. Briefly, after mechanical and enzymatic (trypsin and DNAse) disaggregation, aliquots of tumor cells were seeded in 6-well plates, and incubated in standard DMEM media with 10% fetal bovine serum, and 2 mM glucose, 5.5 mM glucose, or 5.5 mM fructose for 72 h. As before in the PANC-1 experiments, BRDU (10 μM) was added in the […] of incubation in the sugars, following which BRDU-uptake was quantified.

`O=C(CO)[C@@H](O)[C@H](O)[C@H](O)CO` [fructose] was tested, and the “FK-1 mRNA expression (Northern blot)” value [1] was “Highest FK-1 expression”, the “AP-1 luciferase reporter activity higher than in 5.5 mM glucose” value [2] was “approximately 40%” and the “proliferative rates (BRDU-uptake) in fructose compared to glucose” value [3] was “higher proliferative rates”.

Source: patent publication US20090232735A1, “USE OF FRUCTOSE-BASED THERAPIES FOR THE TREATMENT OF CANCER” (CEDARS-SINAI MEDICAL CENTER, priority 2005, published 2009)
